Tests used:
[1] = tested on: monoclonal antibody to doxorubicin [4]-BTG (Immunogen Example 3a, Example 7); experiment: Indirect competitive microtiter plate ELISA, cross-reactivity, monoclonal antibody from doxorubicin [4]-BTG immunogen (Example 3a); assay type: binding, mouse (BALB/c); conditions: relative to doxorubicin
Description: (§1) Two groups of ten Female BALB/c mice were immunized i.p. one with 100 μg/mouse of doxorubicin [4]-BTG immunogen prepared in Example 3a and the other with 100 μg/mouse of doxorubicin [4]-KLH immunogen prepared in Example 3b emulsified in Complete Freund's adjuvant. The mice were boosted once four weeks after the initial injection with 100 μg/mouse of the same immunogens emulsified in Incomplete Freund's Adjuvant. Ten days after the boost test bleeds from each mouse were obtained by orbital bleed. For monoclonal antibodies depending on the immunogen, age and rest period of the mouse starting four days before the fusion, the mice were injected i.p. with either 400 μg (3 days before fusion), 200 μg (2 days before fusion), and […] (1 day before fusion) of doxorubicin [4]-BTG immunogen prepared in Example 3a in PBS or 100 ug on each day of doxorubicin [4]-KLH immunogen prepared in Example 3b in PBS on three successive days. According to the protocol of Coligan et al. spleen cells were isolated from the selected mice and fused with 2×10^7 cells of the myeloma fusion partner cell line (SP2/0) using 50% polyethylene glycol 1500 [Coligan, J. E. et al., eds., Current Protocols in Immunology, 2.5.1-2.5.8, (1992), Wiley & Sons, NY.] To grow the fused cells into antibody producing colonies according to the method of Coligan et al. the fused cells were plated on 10 96-well plates in a conventional HAT (hypoxanthine, aminopterin and thymidine) selective growth medium such as DMEM/F12 (Dulbecco's Modified Eagle's Medium 1:1 with L-glutamine and HEPES) supplemented with 20% fetal bovine serum alternative, and containing 2% L-glutamine (100 mM) and 2% 50× HAT. Two weeks later, the hybridoma supernatant was assayed for the presence of anti-doxorubicin antibodies by ELISA as described in Example 10b. Positive wells were expanded and again screened by the same method. The positive clones were confirmed for doxorubicin binding by a competitive ELISA as described in Example 11 or subcloned directly. Clones positive by ELISA were subcloned once or twice by limiting dilution according to the method disclosed in Coligan, J. E. et al., eds., Current Protocols in Immunology, 2.5.8-2.5.17, (1992), Wiley & Sons, NY.
For the purpose of screening antibodies and measuring doxorubicin concentration by the Enzyme-Linked Immunosorbent Assay (ELISA) method polystyrene microtiter plates (Nunc MaxiSorp F8 Immunomodules) optimized for protein binding and containing 96 wells per plate were used. Each well was coated with doxorubicin [5]-BSA 3:1 conjugate (prepared as in Example 6b) by adding 300 μL of doxorubicin [1]-BSA conjugate at 10 μg/mL in 0.01 M MES, pH=6, and incubating for three hours at room temperature. […]

[2] = tested on: antibody as produced in Examples 7 and 8 with immunogen of Examples 3a, 3b, 4a & b; experiment: Competitive immunoassay cross-reactivity, antibodies of Examples 7 and 8 taken together; assay type: binding, mouse; conditions: antibodies of Examples 7 and 8, immunogens of Examples 3a
Description: The present invention relates to novel antibodies and monoclonal antibodies to doxorubicin. The antisera of the invention can be conveniently produced by immunizing host animals with the immunogens of this invention. Suitable host animals include rodents, such as, for example, mice, rats, rabbits, guinea pigs and the like, or higher mammals such as goats, sheep, horses and the like. […] Doxorubicin concentrations were measured by an indirect competitive Enzyme-Linked Immunosorbent Assay (ELISA) method This method for measuring doxorubicin concentrations was performed with the microtiter plates that were sensitized with doxorubicin [1]-BSA described in Examples 9b, c, d. […] The assay was performed by incubating 50 μL of the analytes to be measured with 50 μL of antibody (produced in Examples 7 and 8 with immunogens of Examples 3a, 3b, 4a and 4b) diluted to a titer determined in Example 10a. […] Following the incubation for color development, 50 μL of stop solution (1.5% sodium fluoride in di H2O) was added to each well to stop the color development and after 10 seconds of shaking the absorbance was determined at 650 nm with a 96-well plate reader. The amount of antibody in a well was proportional to the absorbance measured and inversely proportional to the amount of doxorubicin in the sample. […]

[3] = tested on: monoclonal antibody to doxorubicin [4]-KLH (Immunogen Example 3b, Example 7); experiment: Indirect competitive microtiter plate ELISA, cross-reactivity, monoclonal antibody from doxorubicin [4]-KLH immunogen (Example 3b); assay type: binding, mouse (BALB/c); conditions: relative to doxorubicin
Description: as §1
(§2) For the purpose of screening antibodies and measuring doxorubicin concentration by the Enzyme-Linked Immunosorbent Assay (ELISA) method polystyrene microtiter plates (Nunc MaxiSorp F8 Immunomodules) optimized for protein binding and containing 96 wells per plate were used. Each well was coated with doxorubicin [5]-BSA 3:1 conjugate (prepared as in Example 6b) by adding 300 μL of doxorubicin [1]-BSA conjugate at 10 μg/mL in 0.01 M MES, pH=6, and incubating for three hours at room temperature. The wells were washed with 0.005 M MES, pH 6 and then were blocked with 375 μL of 5% sucrose, 0.2% sodium caseinate solution for 30 minutes at room temperature. After removal of the post-coat solution the plates were dried at 37° C. overnight.
as §2, with “[1]-BSA 1:1” for “[5]-BSA 3:1”, “6c)” for “6b)”, “[5]-BSA” for “[1]-BSA”
For the purpose of screening antibodies and measuring doxorubicin concentration by the Enzyme-Linked Immunosorbent Assay (ELISA) method polystyrene microtiter plates (Nunc MaxiSorp F8 Immunomodules) optimized for protein binding and containing 96 wells per plate were used. […]

[4] = tested on: antibodies to doxorubicin [5]-KLH (Immunogen Example 4b, Example 8); experiment: Indirect competitive microtiter plate ELISA, cross-reactivity, antiserum from doxorubicin [5]-KLH immunogen (Example 4b); assay type: binding, mouse (BALB/c); conditions: relative to doxorubicin
Description: Mice were boosted once four weeks after the initial injection with 100 μg/mouse of the same immunogens emulsified in Incomplete Freund's Adjuvant. Ten and 28 days after the boost test bleeds from each mouse were obtained by orbital bleed. The anti-serum from the day 28 test bleeds contained doxorubicin antibodies evaluated in Examples 10a and 11. […] For the purpose of screening antibodies and measuring doxorubicin concentration by the Enzyme-Linked Immunosorbent Assay (ELISA) method polystyrene microtiter plates (Nunc MaxiSorp F8 Immunomodules) optimized for protein binding and containing 96 wells per plate were used. […] The wells were washed with 0.005 M MES, pH 6 and then were blocked with 375 μL of 5% sucrose, 0.2% sodium caseinate solution for 30 minutes at room temperature. After removal of the post-coat solution the plates were dried at 37° C. overnight. For the purpose of screening antibodies and measuring doxorubicin concentration by the Enzyme-Linked Immunosorbent Assay (ELISA) method polystyrene microtiter plates (Nunc MaxiSorp F8 Immunomodules) optimized for protein binding and containing 96 wells per plate were used. […] The wells were washed with 0.005 M MES, pH 6 and then were blocked with 375 μL of 5% sucrose, 0.2% sodium caseinate solution for 30 minutes at room temperature. After removal of the post-coat solution the plates were dried at 37° C. overnight. For the purpose of screening antibodies and measuring doxorubicin concentration by the Enzyme-Linked Immunosorbent Assay (ELISA) method polystyrene microtiter plates (Nunc MaxiSorp F8 Immunomodules) optimized for protein binding and containing 96 wells per plate were used. […] Following the incubation for color development, 50 μL of stop solution (1.5% sodium fluoride in di H2O) was added to each well to stop the color development and after 10 seconds of shaking the absorbance was determined at 650 nm with a 96-well plate reader. The amount of antibody in a well was proportional to the absorbance measured and was expressed as the dilution (titer) resulting in an absorbance of 1.5. Titers were determined by graphing log antibody dilution of the antibody measured (x-axis) vs. absorbance 650 nm (y-axis) and extrapolating the titer at an absorbance of 1.5. The titer determined the concentration (dilution) of antibody used in the indirect competitive Microtiter plate assay described in Example 11. Doxorubicin concentrations were measured by an indirect competitive Enzyme-Linked Immunosorbent Assay (ELISA) method This method for measuring doxorubicin concentrations was performed with the microtiter plates that were sensitized with doxorubicin [1]-BSA described in Examples 9b, c, d. […]

[5] = tested on: antibodies to doxorubicin [5]-BTG (Immunogen Example 4a, Example 8); experiment: Indirect competitive microtiter plate ELISA, cross-reactivity, antiserum from doxorubicin [5]-BTG immunogen (Example 4a); assay type: binding, mouse (BALB/c); conditions: relative to doxorubicin
Description: Mice were boosted once four weeks after the initial injection with 100 μg/mouse of the same immunogens emulsified in Incomplete Freund's Adjuvant. Ten and 28 days after the boost test bleeds from each mouse were obtained by orbital bleed. The anti-serum from the day 28 test bleeds contained doxorubicin antibodies evaluated in Examples 10a and 11. […] For the purpose of screening antibodies and measuring doxorubicin concentration by the Enzyme-Linked Immunosorbent Assay (ELISA) method polystyrene microtiter plates (Nunc MaxiSorp F8 Immunomodules) optimized for protein binding and containing 96 wells per plate were used. […] The wells were washed with 0.005 M MES, pH 6 and then were blocked with 375 μL of 5% sucrose, 0.2% sodium caseinate solution for 30 minutes at room temperature. After removal of the post-coat solution the plates were dried at 37° C. overnight. […] The wells were washed with 0.005 M MES, pH 6 and then were blocked with 375 μL of 5% sucrose, 0.2% sodium caseinate solution for 30 minutes at room temperature. After removal of the post-coat solution the plates were dried at 37° C. overnight. For the purpose of screening antibodies and measuring doxorubicin concentration by the Enzyme-Linked Immunosorbent Assay (ELISA) method polystyrene microtiter plates (Nunc MaxiSorp F8 Immunomodules) optimized for protein binding and containing 96 wells per plate were used. […] The wells were washed with 0.005 M MES, pH 6 and then were blocked with 375 μL of 5% sucrose, 0.2% sodium caseinate solution for 30 minutes at room temperature. After removal of the post-coat solution the plates were dried at 37° C. overnight. Antibodies were screened by Enzyme-Linked Immunosorbent Assay (ELISA) method. […] During this incubation antibody binds to the doxorubicin [5]-conjugate in the well. […] After an incubation of 10 minutes at room temperature with shaking, during which the goat anti-mouse antibody—HRP enzyme conjugate binds to doxorubicin antibodies in the wells, the plates were again washed three times to remove unbound goat anti-mouse antibody—HRP enzyme conjugate. To develop a measurable color in the wells washing was followed by the addition of 100 μL of TMB (TMB Liquid Substrate), a substrate for HRP, to develop color during a 10 minute incubation with shaking at room temperature. Following the incubation for color development, 50 μL of stop solution (1.5% sodium fluoride in di H2O) was added to each well to stop the color development and after 10 seconds of shaking the absorbance was determined at 650 nm with a 96-well plate reader. The amount of antibody in a well was proportional to the absorbance measured and was expressed as the dilution (titer) resulting in an absorbance of 1.5. Titers were determined by graphing log antibody dilution of the antibody measured (x-axis) vs. absorbance 650 nm (y-axis) and extrapolating the titer at an absorbance of 1.5. The titer determined the concentration (dilution) of antibody used in the indirect competitive Microtiter plate assay described in Example 11. Doxorubicin concentrations were measured by an indirect competitive Enzyme-Linked Immunosorbent Assay (ELISA) method This method for measuring doxorubicin concentrations was performed with the microtiter plates that were sensitized with doxorubicin [1]-BSA described in Examples 9b, c, d. […] During the 10 minute incubation (R.T., with shaking) there is a competition of antibody binding for the doxorubicin conjugate in the well and the analyte in solution. […]

[6] = plate sensitized as in Example 9b (doxorubicin [5]-BSA 3:1)
[7] = plate sensitized as in Example 9c (doxorubicin [5]-BSA 1:1)
[8] = plate sensitized as in Example 9d (doxorubicin [5]-BSA 1:1 thiol capped)

Compound	% cross-reactivity [1, 6] [%]	% cross-reactivity [1, 7] [%]	percent cross-reactivity relative to doxorubicin [2]	% cross-reactivity [3, 6] [%]	% cross-reactivity [3, 7] [%]	% cross-reactivity [3, 8] [%]	% cross-reactivity [4, 6] [%]	% cross-reactivity [5, 6] [%]	% cross-reactivity [5, 7] [%]	% cross-reactivity [5, 8] [%]	% cross-reactivity [4, 7] [%]	% cross-reactivity [4, 8] [%]
COc1cccc2c1C(=O)c1c(O)c3c(c(O)c1C2=O)C[C@@](O)(C(=O)CO)C[C@@H]3O [doxorubicin-aglycone, doxorubicin aglycone]	10.6	12.9	less than or equal to 10%	1.5	3.9	3.0	8.6	5.7	10.0	8.8	–	–
COc1cccc2c1C(=O)c1c(O)c3c(c(O)c1C2=O)C[C@@](O)(C(=O)CO)C[C@@H]3O[C@H]1C[C@H](N)[C@H](O)[C@H](C)O1.Cl [doxorubicin]	100	100	–	100	100	100	100	100	100	100	100	100

Source: US8084586B2, “Doxorubicin immunoassay” (Saladax Biomedical, Inc., priority 2005, dated 2011)
